Measured values taken from ChEMBL document CHEMBL3784933, “Synthesis and antitumor evaluation of trimethoxyanilides based on 4(3H)-quinazolinone scaffolds” (2016).

Columns and labels:
Format in all cases: functional
[1] = Cytotoxicity against human LOXIMVI cells assessed as growth inhibition at 10 uM after 48 hrs by SRB assay; settings: LOX IMVI, read-out: GI
[2] = Cytotoxicity against human NCI-H322 cells assessed as growth inhibition at 10 uM after 48 hrs by SRB assay; settings: NCI-H322, 48 h, read-out: GI
ACHN = experiment: Cytotoxicity against human ACHN cells assessed as growth inhibition at 10 uM after 48 hrs by SRB assay; settings: read-out: GI
[3] = Cytotoxicity against human MOLT4 cells assessed as growth inhibition at 10 uM after 48 hrs by SRB assay; settings: MOLT-4, 48 h, read-out: GI
[4] = Cytotoxicity against human OVCAR3 cells assessed as growth inhibition at 10 uM after 48 hrs by SRB assay; settings: OVCAR-3, 48 h, read-out: GI
[5] = Cytotoxicity against human Caki1 cells assessed as growth inhibition at 10 uM after 48 hrs by SRB assay; settings: CAKI-1, 48 h, read-out: GI
EKVX = experiment: Cytotoxicity against human EKVX cells assessed as growth inhibition at 10 uM after 48 hrs by SRB assay; settings: read-out: GI
SN12C = experiment: Cytotoxicity against human SN12C cells assessed as growth inhibition at 10 uM after 48 hrs by SRB assay; settings: read-out: GI
MCF7 = experiment: Cytotoxicity against human MCF7 cells assessed as growth inhibition at 10 uM after 48 hrs by SRB assay; settings: MCF7, 48 h, read-out: GI
MDA-MB-231 = experiment: Cytotoxicity against human MDA-MB-231 cells assessed as growth inhibition at 10 uM after 48 hrs by SRB assay; settings: MDA-MB-231, 48 h, read-out: GI
[6] = Cytotoxicity against human OVCAR8 cells assessed as growth inhibition at 10 uM after 48 hrs by SRB assay; settings: OVCAR-8, 48 h, read-out: GI
[7] = Cytotoxicity against human HOP92 cells assessed as growth inhibition at 10 uM after 48 hrs by SRB assay; settings: HOP-92, 48 h, read-out: GI
K562 = experiment: Cytotoxicity against human K562 cells assessed as growth inhibition at 10 uM after 48 hrs by SRB assay; settings: K562, 48 h, read-out: GI
[8] = Cytotoxicity against human PC3 cells assessed as growth inhibition at 10 uM after 48 hrs by SRB assay; settings: PC-3, 48 h, read-out: GI
[9] = Cytotoxicity against human HCT116 cells assessed as growth inhibition at 10 uM after 48 hrs by SRB assay; settings: HCT-116, 48 h, read-out: GI
NCI-H23 = experiment: Cytotoxicity against human NCI-H23 cells assessed as growth inhibition at 10 uM after 48 hrs by SRB assay; settings: NCI-H23, 48 h, read-out: GI
[10] = Cytotoxicity against human Hs 578T cells assessed as growth inhibition at 10 uM after 48 hrs by SRB assay; settings: read-out: GI
NCI-H226 = experiment: Cytotoxicity against human NCI-H226 cells assessed as growth inhibition at 10 uM after 48 hrs by SRB assay; settings: NCI-H226, 48 h, read-out: GI
SK-MEL-5 = experiment: Cytotoxicity against human SK-MEL-5 cells assessed as growth inhibition at 10 uM after 48 hrs by SRB assay; settings: SK-MEL-5, 48 h, read-out: GI
[11] = Cytotoxicity against human SNB19 cells assessed as growth inhibition at 10 uM after 48 hrs by SRB assay; settings: SNB-19, 48 h, read-out: GI
[12] = Cytotoxicity against human UO31 cells assessed as growth inhibition at 10 uM after 48 hrs by SRB assay; settings: UO-31, 48 h, read-out: GI
KM12 = experiment: Cytotoxicity against human KM12 cells assessed as growth inhibition at 10 uM after 48 hrs by SRB assay; settings: KM12, 48 h, read-out: GI
[13] = Cytotoxicity against human RPMI8226 cells assessed as growth inhibition at 10 uM after 48 hrs by SRB assay; settings: RPMI-8226, 48 h, read-out: GI
NCI-H522 = experiment: Cytotoxicity against human NCI-H522 cells assessed as growth inhibition at 10 uM after 48 hrs by SRB assay; settings: NCI-H522, 48 h, read-out: GI
[14] = Cytotoxicity against human SKOV3 cells assessed as growth inhibition at 10 uM after 48 hrs by SRB assay; settings: SK-OV-3, 48 h, read-out: GI
[15] = Cytotoxicity against human RXF393 cells assessed as growth inhibition at 10 uM after 48 hrs by SRB assay; settings: RXF 393, 48 h, read-out: GI
[16] = Cytotoxicity against human OVCAR5 cells assessed as growth inhibition at 10 uM after 48 hrs by SRB assay; settings: OVCAR-5, 48 h, read-out: GI
[17] = Cytotoxicity against human NCI-ADR-RES cells assessed as growth inhibition at 10 uM after 48 hrs by SRB assay; settings: read-out: GI
M14 = experiment: Cytotoxicity against human M14 cells assessed as growth inhibition at 10 uM after 48 hrs by SRB assay; settings: M14, 48 h, read-out: GI
A549 = experiment: Cytotoxicity against human A549 cells assessed as growth inhibition at 10 uM after 48 hrs by SRB assay; settings: A549, 48 h, read-out: GI
[18] = Cytotoxicity against human HCT15 cells assessed as growth inhibition at 10 uM after 48 hrs by SRB assay; settings: HCT-15, 48 h, read-out: GI
786-0 = experiment: Cytotoxicity against human 786-0 cells assessed as growth inhibition at 10 uM after 48 hrs by SRB assay; settings: 786-0, 48 h, read-out: GI
[19] = Cytotoxicity against human IGROV1 cells assessed as growth inhibition at 10 uM after 48 hrs by SRB assay; settings: IGROV-1, 48 h, read-out: GI
U-251 = experiment: Cytotoxicity against human U251 cells assessed as growth inhibition at 10 uM after 48 hrs by SRB assay; settings: U-251, 48 h, read-out: GI
[20] = Cytotoxicity against human UACC62 cells assessed as growth inhibition at 10 uM after 48 hrs by SRB assay; settings: UACC-62, 48 h, read-out: GI
[21] = Cytotoxicity against human SF295 cells assessed as growth inhibition at 10 uM after 48 hrs by SRB assay; settings: SF-295, 48 h, read-out: GI
[22] = Cytotoxicity against human OVCAR4 cells assessed as growth inhibition at 10 uM after 48 hrs by SRB assay; settings: OVCAR-4, 48 h, read-out: GI
T47D = experiment: Cytotoxicity against human T47D cells assessed as growth inhibition at 10 uM after 48 hrs by SRB assay; settings: read-out: GI
[23] = Cytotoxicity against human SNB75 cells assessed as growth inhibition at 10 uM after 48 hrs by SRB assay; settings: SNB-75, 48 h, read-out: GI
Malme-3M = experiment: Cytotoxicity against human MALME-3M cells assessed as growth inhibition at 10 uM after 48 hrs by SRB assay; settings: read-out: GI
MDA-MB-435 = experiment: Cytotoxicity against human MDA-MB-435 cells assessed as growth inhibition at 10 uM after 48 hrs by SRB assay; settings: MDA-MB-435, 48 h, read-out: GI
A498 = experiment: Cytotoxicity against human A498 cells assessed as growth inhibition at 10 uM after 48 hrs by SRB assay; settings: A498, 48 h, read-out: GI
[24] = Cytotoxicity against human SF268 cells assessed as growth inhibition at 10 uM after 48 hrs by SRB assay; settings: SF-268, 48 h, read-out: GI
[25] = Cytotoxicity against human OVCAR1 cells assessed as growth inhibition at 10 uM after 48 hrs by SRB assay; settings: OVCAR1, 48 h, read-out: GI
[26] = Cytotoxicity against human HL-60(TB) cells assessed as growth inhibition at 10 uM after 48 hrs by SRB assay; settings: HL-60, 48 h, read-out: GI
[27] = Cytotoxicity against human SW620 cells assessed as growth inhibition at 10 uM after 48 hrs by SRB assay; settings: SW-620, 48 h, read-out: GI
CCRF-CEM = experiment: Cytotoxicity against human CCRF-CEM cells assessed as growth inhibition at 10 uM after 48 hrs by SRB assay; settings: read-out: GI
SK-MEL-28 = experiment: Cytotoxicity against human SK-MEL-28 cells assessed as growth inhibition at 10 uM after 48 hrs by SRB assay; settings: SK-MEL-28, 48 h, read-out: GI
MDA-MB-468 = experiment: Cytotoxicity against human MDA-MB-468 cells assessed as growth inhibition at 10 uM after 48 hrs by SRB assay; settings: MDA-MB-468, 48 h, read-out: GI
[28] = Cytotoxicity against human BT549 cells assessed as growth inhibition at 10 uM after 48 hrs by SRB assay; settings: BT-549, 48 h, read-out: GI
SK-MEL-2 = experiment: Cytotoxicity against human SK-MEL-2 cells assessed as growth inhibition at 10 uM after 48 hrs by SRB assay; settings: SK-MEL-2, 48 h, read-out: GI
[29] = Cytotoxicity against human UACC257 cells assessed as growth inhibition at 10 uM after 48 hrs by SRB assay; settings: UACC-257, 48 h, read-out: GI
SR = experiment: Cytotoxicity against human SR cells assessed as growth inhibition at 10 uM after 48 hrs by SRB assay; settings: read-out: GI

COc1cc(NC(=O)CSc2nc3ccc(Cl)cc3c(=O)n2-c2ccc(F)cc2)cc(OC)c1OC
inhibition of growth at 10 µM [1]: 27%
inhibition of growth at 10 µM [2]: 14%
inhibition of growth at 10 µM (ACHN): 15%
inhibition of growth at 10 µM [3]: 39%
inhibition of growth at 10 µM [4]: 20%
inhibition of growth at 10 µM [5]: 29%
inhibition of growth at 10 µM (EKVX): 33%
inhibition of growth at 10 µM (SN12C): 22%
inhibition of growth at 10 µM (MCF7): 13%
inhibition of growth at 10 µM (MDA-MB-231): 34%
inhibition of growth at 10 µM [6]: 12%
inhibition of growth at 10 µM [7]: 64%
inhibition of growth at 10 µM (K562): 20%
inhibition of growth at 10 µM [8]: 27%
inhibition of growth at 10 µM [9]: 21%
inhibition of growth at 10 µM (NCI-H23): 15%
inhibition of growth at 10 µM [10]: 26%
inhibition of growth at 10 µM (NCI-H226): 17%
inhibition of growth at 10 µM (SK-MEL-5): 27%
inhibition of growth at 10 µM [11]: 18%
inhibition of growth at 10 µM [12]: 60%
inhibition of growth at 10 µM (KM12): 15%
inhibition of growth at 10 µM [13]: 61%
inhibition of growth at 10 µM (NCI-H522): 21%
inhibition of growth at 10 µM [14]: 13%
inhibition of growth at 10 µM [15]: 20%
inhibition of growth at 10 µM [16]: 12%
inhibition of growth at 10 µM [17]: 19%
inhibition of growth at 10 µM (M14): 16%
inhibition of growth at 10 µM (A549): 17%
inhibition of growth at 10 µM [18]: 16%
inhibition of growth at 10 µM (786-0): 25%
inhibition of growth at 10 µM [19]: 14%
inhibition of growth at 10 µM (U-251): 18%
inhibition of growth at 10 µM [20]: 29%
inhibition of growth at 10 µM [21]: 20%
inhibition of growth at 10 µM [22]: 23%
inhibition of growth at 10 µM (T47D): 28%
inhibition of growth at 10 µM [23]: 28%
inhibition of growth at 10 µM (Malme-3M): 15%
inhibition of growth at 10 µM (MDA-MB-435): 10%
inhibition of growth at 10 µM (A498): 66%
inhibition of growth at 10 µM [24]: 21%

COc1cc(NC(=O)CSc2nc3ccc(C)cc3c(=O)n2-c2ccccc2)cc(OC)c1OC
inhibition of growth at 10 µM [1]: 25%
inhibition of growth at 10 µM (ACHN): 10%
inhibition of growth at 10 µM [25]: 11%
inhibition of growth at 10 µM [3]: 41%
inhibition of growth at 10 µM [4]: 16%
inhibition of growth at 10 µM [5]: 12%
inhibition of growth at 10 µM [26]: 11%
inhibition of growth at 10 µM (MDA-MB-231): 23%
inhibition of growth at 10 µM [6]: 13%
inhibition of growth at 10 µM [27]: 13%
inhibition of growth at 10 µM [7]: 51%
inhibition of growth at 10 µM (K562): 13%
inhibition of growth at 10 µM [8]: 18%
inhibition of growth at 10 µM [9]: 13%
inhibition of growth at 10 µM (NCI-H23): 16%
inhibition of growth at 10 µM (CCRF-CEM): 17%
inhibition of growth at 10 µM (SK-MEL-28): 17%
inhibition of growth at 10 µM (NCI-H226): 18%
inhibition of growth at 10 µM (SK-MEL-5): 23%
inhibition of growth at 10 µM [11]: 13%
inhibition of growth at 10 µM [12]: 49%
inhibition of growth at 10 µM (MDA-MB-468): 31%
inhibition of growth at 10 µM [28]: 21%
inhibition of growth at 10 µM (KM12): 25%
inhibition of growth at 10 µM [13]: 24%
inhibition of growth at 10 µM (NCI-H522): 32%
inhibition of growth at 10 µM [15]: 14%
inhibition of growth at 10 µM [17]: 25%
inhibition of growth at 10 µM (M14): 21%
inhibition of growth at 10 µM (A549): 17%
inhibition of growth at 10 µM [18]: 19%
inhibition of growth at 10 µM (SK-MEL-2): 14%
inhibition of growth at 10 µM (786-0): 11%
inhibition of growth at 10 µM [20]: 23%
inhibition of growth at 10 µM [22]: 32%
inhibition of growth at 10 µM [29]: 18%
inhibition of growth at 10 µM (T47D): 19%
inhibition of growth at 10 µM [23]: 43%
inhibition of growth at 10 µM (Malme-3M): 10%
inhibition of growth at 10 µM (SR): 58%
inhibition of growth at 10 µM (MDA-MB-435): 53%
inhibition of growth at 10 µM (A498): 38%
inhibition of growth at 10 µM [24]: 14%
